In patent US9480727B2, “Synthetic peptide for inhibiting expression of type 2 TNF receptor and use thereof” (TOAGOSEI CO., LTD., priority 2012, dated 2016):

Assays:
TNF-R1 [1] = test: TNF-R1 expression (immunofluorescence, flow cytometry) in human SK-N-SH cells; type: cell-based; details: SK-N-SH cells after retinoic acid induction, 5 μM peptide, two days; fluorescence intensity relative to control = 1 (FIG. 2)
Protocol: The activities of the two peptides synthesized in Example 1 above were tested with cultured cells of a human neuroblastoma cell line (SK-N-SH). The control group was supplied with no peptides. The test details are described below.
The SK-N-SH cell line was seeded in a 4 mL fraction in a culture dish of 6 cm diameter at a density of 1.5×10^5 cells/mL and incubated in a general DMEM culture medium (with 10% FBS, 2 mM L-glutamine, 50 unit/mL penicillin, and 50 μg/mL streptomycin) at 37° C. in a CO2 incubator at 5% CO2 over two nights. […]
(§1) After completion of the incubation, cultured cells in each test group were collected and divided into certain test tubes in fractions having the same number of number of cells. By the immunofluorescence technique described below, the expression (presence) of TNF-R1 and TNF-R2 was then assessed in each test group (group supplied with no peptide, group supplied with Sample 1, group supplied with Sample 2). […]
(§2) The fluorescence intensities of cells were measured with a flow cytometer (a Millipore system product, Guava® easyCyte 8HT). For both TNF-R2 and TNF-R1, the fluorescence intensities are shown as relative values with the fluorescence intensities of TNF-R2 and TNF-R1 in the control group (group supplied with no peptide) being 1, respectively.

TNF-R1 [2] = test: TNF-R1 expression (immunofluorescence, flow cytometry) in mouse Neuro 2a cells; type: cell-based; details: Neuro 2a cells after retinoic acid induction, 5 μM peptide, two days; fluorescence intensity relative to control = 1 (FIG. 1)
Protocol: The activities of the two peptides synthesized in Example 1 above were tested with cultured cells of a mouse spinal cord, neuroblastoma cell line (Neuro 2a). The control group was supplied with no peptides. The test details are described below.
The Neuro 2a cell line was seeded in a culture dish of 6 cm diameter at a density of 8.5×10^4 cells/mL and incubated overnight in a general DMEM culture medium (with 10% FBS, 1% penicillin) at 37° C. in a CO2 incubator at 5% CO2.
After incubated overnight, the culture medium was replaced with a DMEM culture medium containing 2% FBS, 20 μM retinoic acid and 1% penicillin. […]
as §1, with “same” for “same number of”
as §2

MLPGLALLLLAAWTARA (listed as Homo sapiens) [Sample 1]
presence (expression) of TNF-R1 as compared with the control group (TNF-R1 [1]): no significant change | presence (expression) of TNF-R1 as compared with the control group (TNF-R1 [2]): no significant change

MLPSLALLLLAAWTVRA (listed as Mus musculus) [Sample 2]
presence (expression) of TNF-R1 as compared with the control group (TNF-R1 [1]): no significant change | presence (expression) of TNF-R1 as compared with the control group (TNF-R1 [2]): no significant change
